Reference: the NIST ThermoML archive (doi:10.1021/je300799f)

Experiment: xn = mol fraction of the nth substance listed
Details: 101 kPa, Liquid, Vibrating tube method

CCCC(=O)OCC [ethyl butanoate] + CCCCCCC
Details	mass density [kg/m3]
288.15 K, x1 = 0.0502	696.39
288.15 K, x1 = 0.0918	703.35
288.15 K, x1 = 0.1473	712.8
288.15 K, x1 = 0.2022	722.42
288.15 K, x1 = 0.2465	730.35
288.15 K, x1 = 0.288	737.84
288.15 K, x1 = 0.3987	758.41
288.15 K, x1 = 0.4488	767.94
288.15 K, x1 = 0.5008	778.03
288.15 K, x1 = 0.5456	786.84
288.15 K, x1 = 0.6023	798.22
288.15 K, x1 = 0.6584	809.63
288.15 K, x1 = 0.6999	818.26
288.15 K, x1 = 0.7486	828.54
288.15 K, x1 = 0.8042	840.42
288.15 K, x1 = 0.8481	850.01
288.15 K, x1 = 0.901	861.58
288.15 K, x1 = 0.9347	869.11
288.15 K, x1 = 0.9527	873.2
288.15 K, x1 = 1	884.01
298.15 K, x1 = 0.0522	688.18
298.15 K, x1 = 0.0904	694.54
298.15 K, x1 = 0.1404	703.05
298.15 K, x1 = 0.1901	711.58
298.15 K, x1 = 0.2539	722.68
298.15 K, x1 = 0.2962	730.22
298.15 K, x1 = 0.3543	740.87
298.15 K, x1 = 0.4	749.31
298.15 K, x1 = 0.443	757.44
298.15 K, x1 = 0.5517	778.51
298.15 K, x1 = 0.6018	788.45
298.15 K, x1 = 0.648	797.84
298.15 K, x1 = 0.6976	808.02
298.15 K, x1 = 0.7463	818.17
298.15 K, x1 = 0.7884	827.06
298.15 K, x1 = 0.8473	839.64
298.15 K, x1 = 0.9054	852.26
298.15 K, x1 = 0.9524	862.74
298.15 K, x1 = 1	873.5
308.15 K, x1 = 0.0461	678.42
308.15 K, x1 = 0.0952	686.44
308.15 K, x1 = 0.1445	694.69
308.15 K, x1 = 0.2034	704.7
308.15 K, x1 = 0.2497	712.78
308.15 K, x1 = 0.3081	723.17
308.15 K, x1 = 0.3441	729.57
308.15 K, x1 = 0.406	741.01
308.15 K, x1 = 0.4563	750.35
308.15 K, x1 = 0.5053	759.76
308.15 K, x1 = 0.5505	768.46
308.15 K, x1 = 0.6038	778.99
308.15 K, x1 = 0.6498	788.17
308.15 K, x1 = 0.7026	798.87
308.15 K, x1 = 0.7544	809.6
308.15 K, x1 = 0.788	816.69
308.15 K, x1 = 0.8424	828.13
308.15 K, x1 = 0.9009	840.82
308.15 K, x1 = 0.9512	851.86
308.15 K, x1 = 1	862.85
318.15 K, x1 = 0.0532	670.78
318.15 K, x1 = 0.095	677.56
318.15 K, x1 = 0.1397	684.91
318.15 K, x1 = 0.2087	696.59
318.15 K, x1 = 0.2565	704.87
318.15 K, x1 = 0.3048	713.3
318.15 K, x1 = 0.3608	723.3
318.15 K, x1 = 0.4046	731.26
318.15 K, x1 = 0.4532	740.3
318.15 K, x1 = 0.5065	750.34
318.15 K, x1 = 0.5517	759.04
318.15 K, x1 = 0.6007	768.46
318.15 K, x1 = 0.6492	778.12
318.15 K, x1 = 0.6934	787.02
318.15 K, x1 = 0.739	796.28
318.15 K, x1 = 0.7947	807.72
318.15 K, x1 = 0.8554	820.65
318.15 K, x1 = 0.8861	827.23
318.15 K, x1 = 0.9515	841.48
318.15 K, x1 = 1	852.26
328.15 K, x1 = 0.0535	662.06
328.15 K, x1 = 0.0975	669.12
328.15 K, x1 = 0.1485	677.41
328.15 K, x1 = 0.1785	682.4
328.15 K, x1 = 0.2367	692.21
328.15 K, x1 = 0.3034	703.69
328.15 K, x1 = 0.359	713.56
328.15 K, x1 = 0.4538	730.76
328.15 K, x1 = 0.5087	741
328.15 K, x1 = 0.5511	749.04
328.15 K, x1 = 0.6093	760.27
328.15 K, x1 = 0.6471	767.65
328.15 K, x1 = 0.6967	777.52
328.15 K, x1 = 0.739	786.07
328.15 K, x1 = 0.7999	798.54
328.15 K, x1 = 0.8397	806.83
328.15 K, x1 = 0.9086	821.54
328.15 K, x1 = 0.9533	831.27
328.15 K, x1 = 1	841.55

CCCC(=O)OCC [ethyl butanoate] + CCCCCCCCC
Details	mass density [kg/m3]
288.15 K, x1 = 0.0379	725.8
288.15 K, x1 = 0.1046	733.19
288.15 K, x1 = 0.1502	738.59
288.15 K, x1 = 0.2013	744.84
288.15 K, x1 = 0.2499	751.04
288.15 K, x1 = 0.3047	758.28
288.15 K, x1 = 0.3427	763.5
288.15 K, x1 = 0.3961	771.2
288.15 K, x1 = 0.4355	776.9
288.15 K, x1 = 0.4957	786.1
288.15 K, x1 = 0.5455	794.1
288.15 K, x1 = 0.5857	800.8
288.15 K, x1 = 0.6498	811.8
288.15 K, x1 = 0.7067	822.09
288.15 K, x1 = 0.752	830.65
288.15 K, x1 = 0.8019	840.45
288.15 K, x1 = 0.8502	850.42
288.15 K, x1 = 0.904	861.91
288.15 K, x1 = 0.9569	873.91
288.15 K, x1 = 1	884.01
298.15 K, x1 = 0.0486	719.05
298.15 K, x1 = 0.0906	723.69
298.15 K, x1 = 0.1007	724.84
298.15 K, x1 = 0.1495	730.49
298.15 K, x1 = 0.2442	742.05
298.15 K, x1 = 0.2985	749.08
298.15 K, x1 = 0.3131	750.97
298.15 K, x1 = 0.3518	756.23
298.15 K, x1 = 0.4357	768.18
298.15 K, x1 = 0.5028	778.32
298.15 K, x1 = 0.5511	785.92
298.15 K, x1 = 0.5974	793.57
298.15 K, x1 = 0.703	811.93
298.15 K, x1 = 0.746	819.92
298.15 K, x1 = 0.7879	827.92
298.15 K, x1 = 0.8532	841.01
298.15 K, x1 = 0.9053	852.07
298.15 K, x1 = 1	873.5
308.15 K, x1 = 0.0505	711.25
308.15 K, x1 = 0.0818	714.63
308.15 K, x1 = 0.1528	722.65
308.15 K, x1 = 0.1872	726.67
308.15 K, x1 = 0.2112	729.53
308.15 K, x1 = 0.2818	738.36
308.15 K, x1 = 0.3302	744.66
308.15 K, x1 = 0.3685	749.81
308.15 K, x1 = 0.426	757.85
308.15 K, x1 = 0.4773	765.37
308.15 K, x1 = 0.5187	771.59
308.15 K, x1 = 0.5712	779.88
308.15 K, x1 = 0.642	791.55
308.15 K, x1 = 0.6753	797.37
308.15 K, x1 = 0.726	806.38
308.15 K, x1 = 0.7822	816.86
308.15 K, x1 = 0.833	826.88
308.15 K, x1 = 0.878	836.1
308.15 K, x1 = 0.9384	848.96
308.15 K, x1 = 1	862.85
318.15 K, x1 = 0.0435	702.45
318.15 K, x1 = 0.1009	708.56
318.15 K, x1 = 0.1439	713.46
318.15 K, x1 = 0.2001	719.85
318.15 K, x1 = 0.2489	725.77
318.15 K, x1 = 0.2861	730.43
318.15 K, x1 = 0.355	739.26
318.15 K, x1 = 0.402	745.62
318.15 K, x1 = 0.4556	753.18
318.15 K, x1 = 0.4988	759.53
318.15 K, x1 = 0.547	766.88
318.15 K, x1 = 0.6011	775.45
318.15 K, x1 = 0.656	784.53
318.15 K, x1 = 0.6951	791.27
318.15 K, x1 = 0.7543	801.83
318.15 K, x1 = 0.7999	810.52
318.15 K, x1 = 0.8485	819.97
318.15 K, x1 = 0.8947	829.27
318.15 K, x1 = 0.9545	842.03
318.15 K, x1 = 1	852.26
328.15 K, x1 = 0.0481	695.05
328.15 K, x1 = 0.1134	701.93
328.15 K, x1 = 0.1627	707.35
328.15 K, x1 = 0.2102	712.81
328.15 K, x1 = 0.2589	718.53
328.15 K, x1 = 0.3111	725
328.15 K, x1 = 0.3588	731.17
328.15 K, x1 = 0.402	736.91
328.15 K, x1 = 0.4562	744.36
328.15 K, x1 = 0.5565	759.06
328.15 K, x1 = 0.5996	765.77
328.15 K, x1 = 0.6524	774.29
328.15 K, x1 = 0.7062	783.42
328.15 K, x1 = 0.7544	791.91
328.15 K, x1 = 0.806	801.44
328.15 K, x1 = 0.8433	808.67
328.15 K, x1 = 0.8917	818.28
328.15 K, x1 = 0.9532	831.23
328.15 K, x1 = 1	841.55
